Source: publication PMC1310925, “Organotins Disrupt the 11β-Hydroxysteroid Dehydrogenase Type 2–Dependent Local Inactivation of Glucocorticoids” (Environmental Health Perspectives, 2005)

What was measured:
11β-HSD2 [1] = target: T1, 11β-HSD2 (Homo sapiens, UniProt P80365); experiment: 11β-HSD2 activity in lysates of stably transfected HEK-293 cells (cortisol to cortisone); type: biochemical; set-up: expressed in transfected cells; host or cells: HEK-293, stably transfected; settings: for IC50: 40 nM cortisol, 400 μM NAD+, 10 min 37°C, read-out: IC50 11β-HSD2, cell lysate
T1 sequence (P80365 1-405): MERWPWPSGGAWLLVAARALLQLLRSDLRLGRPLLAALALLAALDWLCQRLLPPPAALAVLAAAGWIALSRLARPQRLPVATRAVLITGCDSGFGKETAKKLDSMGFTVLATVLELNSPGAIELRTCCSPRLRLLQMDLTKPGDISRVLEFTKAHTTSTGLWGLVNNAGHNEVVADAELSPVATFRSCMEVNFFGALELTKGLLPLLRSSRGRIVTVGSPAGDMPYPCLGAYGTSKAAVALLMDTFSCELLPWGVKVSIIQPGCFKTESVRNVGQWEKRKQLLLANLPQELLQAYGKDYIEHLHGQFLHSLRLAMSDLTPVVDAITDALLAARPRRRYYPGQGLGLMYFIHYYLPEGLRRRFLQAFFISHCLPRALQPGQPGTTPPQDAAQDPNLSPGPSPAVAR
Method: Cells were rinsed 3 times with phosphate-buffered saline (PBS) and resuspended in 2 mL ice-cold buffer TS2 (100 mM NaCl, 1 mM EGTA, 1 mM EDTA, 1 mM MgCl2, 250 mM sucrose, 20 mM Tris-HCl, pH 7.4). Aliquots of the cell suspension were frozen at −20°C, retaining full enzymatic activity for at least 3 months. For determinationof 11β-HSD2 activity, aliquots were thawed, sonicated, and diluted 1:12 in buffer TS2 (4°C). We carried out reactions in a final volume of 20 μL containing 10 nCi [1,2,6,7-^3H]-cortisol, 400-μM NAD^+, and different concentrations of unlabeled cortisol. […] Incubations were for 10 min at 37°C.

11β-HSD2 [2] = target: T1, 11β-HSD2; experiment: 11β-HSD2 activity in intact stably transfected HEK-293 cells; type: cell-based; set-up: expressed in transfected cells; host or cells: HEK-293, stably transfected; settings: for IC50: HEK-293 stably transfected, 40 nM cortisol, 2 hr; for 11β-HSD2 activity in intact cells, compound alone: concentrations 50% below their IC50 value
Method: HEK-293 cells stably transfected with 11β-HSD2 (25,000 cells per well) were seeded 24 hr prior to the assay in poly-D-lysine coated 96-well Biocoat plates (Becton Dickinson, Basel, Switzerland). The medium was carefully removed, followed by the addition of 30 μL fresh medium, 10 μL medium containing various concentrations of organotins, and 10 μL radiolabeled cortisol. The reaction volume was 50 μL, with a final cortisol concentration of 40 nM. The cells were incubated for 2 hr at 37°C under 5% CO2. We stopped reactions by adding an excess of unlabeled cortisone and cortisol in methanol, and separated steroids using thin-layer chromatography, followed by scintillation counting.

| Structure (SMILES) | effect on 11β-HSD2 enzymatic activity (11β-HSD2 [1]; DTT alone, lysate) | IC50 (11β-HSD2 [1]) [nM] | IC50 (11β-HSD2 [2]) [nM] | 11β-HSD2 activity in intact cells, compound alone (11β-HSD2 [2]) |
| --- | --- | --- | --- | --- |
| O[C@@H](CS)[C@@H](O)CS (racemic) [DTT, dithiothreitol, reference compound] | did not significantly alter enzymatic activity | – | – | – |
| CCC[CH2][Sn][CH2]CCC [DBT, dibutyltin] | – | 1950 ± 270 | 5030 ± 700 | reduced 11β-HSD2 activity only slightly |
| c1cc[c]([Sn][c]2ccccc2)cc1 [DPT, diphenyltin] | – | 1420 ± 170 | 2890 ± 590 | reduced 11β-HSD2 activity only slightly |
